Test results: US20120264735A1 (priority 2009, published 2012)
pIC50: −log10 of the molar value.

Target: T1, c-Met kinase (recombinant c-Met) (Homo sapiens, UniProt P08581)
T1 construct: 0.27 nM recombinant c-Met
Assay: In vitro kinase assay I (homogeneous time-resolved fluorescence tyrosine kinase assay)
Type: biochemical
Outline: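 Biotinylated peptide (0.5 μM) phosphorylated by 0.2 nM recombinant c-Met with 50 μM MgATP, 60 min at room temperature, pH 7.4, 5% DMSO. EDTA stop; HTRF read with Eu-anti-phosphotyrosine antibody and streptavidin-APC. IC50 from 4-parameter logistic fit.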

T1 sequence (P08581 25-1390): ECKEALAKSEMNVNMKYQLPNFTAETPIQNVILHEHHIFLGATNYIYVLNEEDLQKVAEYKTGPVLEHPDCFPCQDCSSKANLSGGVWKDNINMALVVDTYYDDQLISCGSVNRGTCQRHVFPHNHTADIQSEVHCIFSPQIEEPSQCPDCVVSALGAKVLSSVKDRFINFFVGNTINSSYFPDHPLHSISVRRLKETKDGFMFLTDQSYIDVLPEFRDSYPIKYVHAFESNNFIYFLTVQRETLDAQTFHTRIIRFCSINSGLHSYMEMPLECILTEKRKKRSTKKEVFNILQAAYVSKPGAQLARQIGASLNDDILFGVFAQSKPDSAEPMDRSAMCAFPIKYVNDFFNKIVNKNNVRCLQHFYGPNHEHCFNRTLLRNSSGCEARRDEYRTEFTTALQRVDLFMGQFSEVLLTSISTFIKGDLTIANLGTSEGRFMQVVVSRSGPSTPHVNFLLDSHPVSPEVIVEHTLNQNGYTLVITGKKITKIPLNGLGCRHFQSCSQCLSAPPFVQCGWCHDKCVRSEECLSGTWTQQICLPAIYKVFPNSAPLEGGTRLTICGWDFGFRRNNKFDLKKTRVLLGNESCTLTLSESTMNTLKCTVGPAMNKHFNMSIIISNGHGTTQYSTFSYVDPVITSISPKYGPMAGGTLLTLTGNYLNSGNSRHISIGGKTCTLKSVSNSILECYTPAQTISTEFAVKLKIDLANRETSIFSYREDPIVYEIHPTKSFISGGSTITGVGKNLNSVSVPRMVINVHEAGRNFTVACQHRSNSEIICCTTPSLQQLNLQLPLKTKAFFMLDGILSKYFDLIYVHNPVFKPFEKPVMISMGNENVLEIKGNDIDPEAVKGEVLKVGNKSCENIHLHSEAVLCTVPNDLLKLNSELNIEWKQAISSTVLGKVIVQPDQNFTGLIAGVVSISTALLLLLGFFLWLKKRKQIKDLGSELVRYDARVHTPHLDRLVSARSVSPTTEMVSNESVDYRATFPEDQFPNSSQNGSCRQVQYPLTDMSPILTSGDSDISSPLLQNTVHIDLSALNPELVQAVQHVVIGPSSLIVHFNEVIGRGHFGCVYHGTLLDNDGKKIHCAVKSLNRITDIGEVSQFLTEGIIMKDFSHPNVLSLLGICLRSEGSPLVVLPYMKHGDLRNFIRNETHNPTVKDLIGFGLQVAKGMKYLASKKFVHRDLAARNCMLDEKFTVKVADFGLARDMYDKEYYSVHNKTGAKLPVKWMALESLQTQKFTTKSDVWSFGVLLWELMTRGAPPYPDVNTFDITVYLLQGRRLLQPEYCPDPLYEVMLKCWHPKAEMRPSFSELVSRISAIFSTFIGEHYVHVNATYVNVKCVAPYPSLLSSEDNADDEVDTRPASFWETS

SMILES | pIC50
CC(c1cccc(-c2ncc(O[C@@H]3CCNC[C@H]3F)cn2)c1)c1nn(-c2cnn(C)c2)ccc1=O (single isomer, unassigned) [Example 341, 3-{(1R or S)-1-[3-(5-{[(3R or S,4R or S)-3-Fluoropiperidin-4-yl]oxy}pyrimidin-2-yl)phenyl]ethyl}-1-(1-methyl-1H-pyrazol-4-yl)pyridazin-4(1H)-one] | > 7.00
CC(c1cccc(-c2ncc(O[C@@H]3CCNC[C@H]3F)cn2)c1)c1nn(-c2cnn(C)c2)ccc1=O (single isomer, unassigned) [Example 342, 3-{(1R or S)-1-[3-(5-{[(3R or S, 4R or S)-3-fluoropiperidin-4-yl]oxy}pyrimidin-2-yl)phenyl]ethyl}-1-(1-methyl-1H-pyrazol-4-yl)pyridazin-4(1H)-one] | > 7.00
CC(c1cccc(-c2ncc(O[C@@H]3CCNC[C@H]3F)cn2)c1)c1nn(-c2cnn(C)c2)ccc1=O (single isomer, unassigned) [Example 343, 3-{(1R or S)-1-[3-(5-{[(3R or S, 4R or S)-3-fluoropiperidin-4-yl]oxy}pyrimidin-2-yl)phenyl]ethyl}-1-(1-methyl-1H-pyrazol-4-yl)pyridazin-4(1H)-one] | 6.00 to 7.00
O=c1ccn(-c2ccc(F)c(F)c2)nc1Cc1cccc(-c2ncc(OCC3COCCO3)cn2)c1 (single isomer, unassigned) [Example 345, 1-(3,4-difluorophenyl)-3-(3-{5-[(2R or S)-1,4-dioxan-2-ylmethoxy]pyrimidin-2-yl}benzyl)pyridazin-4(1H)-one] | > 7.00
O=c1ccn(-c2ccc(F)c(F)c2)nc1Cc1cccc(-c2ncc(OCC3COCCO3)cn2)c1 (single isomer, unassigned) [Example 346, 1-(3,4-difluorophenyl)-3-(3-{5-[(2S or R-1,4-dioxan-2-ylmethoxy]pyrimidin-2-yl}benzyl)pyridazin-4(1H)-one] | > 7.00
O=c1ccn(-c2ccc(F)c(F)c2)nc1Cc1cccc(-c2ncc(OC3CCOC3)cn2)c1 (single isomer, unassigned) [Example 349, 1-(3,4-difluorophenyl)-3-(3-{5-[(3R or S)-tetrahydrofuran-3-yloxy]pyrimidin-2-yl}benzyl)pyridazin-4(1H)-one] | > 7.00
O=c1ccn(-c2ccc(F)c(F)c2)nc1Cc1cccc(-c2ncc(OC3CCOC3)cn2)c1 (single isomer, unassigned) [Example 350, 1-(3,4-difluorophenyl)-3-(3-{5-[(3S or R)-tetrahydrofuran-3-yloxy]pyrimidin-2-yl}benzyl)pyridazin-4(1H)-one] | > 7.00
O=c1ccn(-c2ccc(F)c(F)c2)nc1Cc1cccc(-c2ncc(OCC3CCOC3)cn2)c1 (single isomer, unassigned) [Example 351, 1-(3,4-difluorophenyl)-3-(3-{5-[(3R or S)-tetrahydrofuran-3-ylmethoxy]pyrimidin-2-yl}benzyl)pyridazin-4(1H)-one] | > 7.00
O=c1ccn(-c2ccc(F)c(F)c2)nc1Cc1cccc(-c2ncc(OCC3CCOC3)cn2)c1 (single isomer, unassigned) [Example 352, 1-(3,4-difluorophenyl)-3-(3-{5-[(3S or R)-tetrahydrofuran-3-ylmethoxy]pyrimidin-2-yl}benzyl)pyridazin-4(1H)-one] | > 7.00
C[C@@H](O)[C@@H](C)Oc1cnc(-c2cccc(Cc3nn(-c4cnn(C)c4)ccc3=O)c2)nc1 (single isomer, unassigned) [Example 374] | > 7.00
C[C@H](O)[C@H](C)Oc1cnc(-c2cccc(Cc3nn(-c4cnn(C)c4)ccc3=O)c2)nc1 (single isomer, unassigned) [Example 375] | > 7.00
C[C@H](O)[C@@H](C)Oc1cnc(-c2cccc(Cc3nn(-c4cnn(C)c4)ccc3=O)c2)nc1 (single isomer, unassigned) [Example 376] | > 7.00

Results, then the compound that gave them:

pIC50 | SMILES
> 7.00 | CCn1cc(-n2ccc(=O)c(C(C)c3cccc(-c4ncc(OCCO)cn4)c3)n2)cn1 (single isomer, unassigned) [Example 295, 1-(1-ethyl-1H-pyrazol-4-yl)-3-[(1R or S)-1-{3-[5-(2-hydroxyethoxy)pyrimidin-2-yl]phenyl}ethyl]pyridazin-4(1H)-one]
> 7.00 | CCn1cc(-n2ccc(=O)c(C(C)c3cccc(-c4ncc(OCC5CCO5)cn4)c3)n2)cn1 (single isomer, unassigned) [Example 296, 1-(1-ethyl-1H-pyrazol-4-yl)-3-[(1R or S)-1-{3-[5-(oxetan-2-ylmethoxy)primidin-2-yl]phenyl}ethyl]pyridazin-4(1H)-one]
> 7.00 | CCn1cc(-n2ccc(=O)c(C(C)c3cccc(-c4ncc(OC5CCOC5)cn4)c3)n2)cn1 (single isomer, unassigned) [Example 297, 1-(1-ethyl-1H-pyrazol-4-yl)-3-[(1R or S)-1-{3-[5-(tetrahydrofuran-3-yloxy)pyrimidin-2-yl]phenyl}ethyl]pyridazin-4(1H)-one]
> 7.00 | CCn1cc(-n2ccc(=O)c(C(C)c3cccc(-c4ncc(OCC5CCCO5)cn4)c3)n2)cn1 (single isomer, unassigned) [Example 298, 1-(1-ethyl-1H-pyrazol-4-yl)-3-[(1R or S)-1-{3-[5-(tetrahydrofuran-2-ylmethoxy)pyrimidin-2-yl]phenyl}ethyl]pyridazin-4(1H)-one]
> 7.00 | CCn1cc(-n2ccc(=O)c(C(C)c3cccc(-c4ncc(OCC5COCCO5)cn4)c3)n2)cn1 (single isomer, unassigned) [Example 299, 3-[(1R or S)-1-{3-[5-(1,4-dioxan-2-ylmethoxy)pyrimidin-2-yl]phenyl}ethyl]-1-(1-ethyl-1H-pyrazol-4-yl)pyriazin-4(1H)-one]
> 7.00 | CCn1cc(-n2ccc(=O)c(C(C)c3cccc(-c4ncc(OCCN5CCOCC5)cn4)c3)n2)cn1 (single isomer, unassigned) [Example 300, 1-(1-ethyl-1H-pyrazol-4-yl)-3-[(1R or S)-1-{3-[5-(2-morpholin-4-ylethoxy)pyrimidin-2-yl]phenyl}ethyl]pyridazin-4(1H)-one]
> 7.00 | CCn1cc(-n2ccc(=O)c(C(C)c3cccc(-c4ncc(OCc5cc(C)no5)cn4)c3)n2)cn1 (single isomer, unassigned) [Example 301, 1-(1-ethyl-1H-pyrazol-4-yl)-3-[(1R or S)-1-(3-{5-[(3-methylisoxazol-5-yl)methoxy]pyrimidin-2-yl}phenyl)ethyl]pyridazin-4(1H)-one]
> 7.00 | CCn1cc(-n2ccc(=O)c(C(C)c3cccc(-c4ncc(OCc5noc(C)n5)cn4)c3)n2)cn1 (single isomer, unassigned) [Example 302, 1-(1-ethyl-1H-pyrazol-4-yl)-3-[(1R or S)-1-(3-{5-[(5-methyl-1,2,4-oxadiazol-3-yl)methoxy]pyrimidin-2-yl}phenyl)ethyl]pyridazin-4(1H)-one]
> 7.00 | CCn1cc(-n2ccc(=O)c(C(C)c3cccc(-c4ncc(OCCn5cccn5)cn4)c3)n2)cn1 (single isomer, unassigned) [Example 303, 1-(1-ethyl-1H-pyrazol-4-yl)-3-[(1R or S)-1-(3-{5-[2-(1H-pyrazol-1-yl)ethoxy]pyrimidin-2-yl}phenyl)ethyl]pyridazin-4(1H)-one]
> 7.00 | CCn1cc(-n2ccc(=O)c(C(C)c3cccc(-c4ncc(OCC5(C)COC5)cn4)c3)n2)cn1 (single isomer, unassigned) [Example 304, 1-(1-ethyl-1H-pyrazol-4-yl)-3-[(1R or S)-1-(3-{5-[(3-methyloxetan-3-yl)methoxy]pyrimidin-2-yl}phenyl)ethyl]pyridazin-4(1H)-one]
6.00 to 7.00 | CCn1cc(-n2ccc(=O)c(C(C)c3cccc(-c4ncc(OC)cn4)c3)n2)cn1 (single isomer, unassigned) [Example 332, 1-(1-ethyl-1H-pyrazol-4-yl)-3-{(1S or R)-1-[3-(5-methoxypyrimidin-2-yl)phenyl]ethyl}pyridazin-4(1H)-one]
> 7.00 | CCn1cc(-n2ccc(=O)c(C(C)c3cccc(-c4ncc(OC)cn4)c3)n2)cn1 (single isomer, unassigned) [Example 333, 1-(1-ethyl-1H-pyrazol-4-yl)-3-{(1R or S)-1-[3-(5-methoxypyrimidin-2-yl)phenyl]ethyl}pyridazin-4(1H)-one]
> 7.00 | CCn1cc(-n2ccc(=O)c(C(C)c3cccc(-c4ncc(OCC5(F)CCNCC5)cn4)c3)n2)cn1 (single isomer, unassigned) [Example 338, 1-(1-ethyl-1H-pyrazol-4-yl)-3-[(1R or S)-1-(3-{5-[(4-fluoropiperidin-4-yl)methoxy]pyrimidin-2-yl}phenyl)ethyl]pyridazin-4(1H)-one]
> 7.00 | CCn1cc(-n2ccc(=O)c(C(C)c3cccc(-c4ncc(OCC5CCNCC5)cn4)c3)n2)cn1 (single isomer, unassigned) [Example 339, 1-(1-ethyl-1H-pyrazol-4-yl)-3-((1R or S)-1-{3-[5-(piperidin-4-ylmethoxy)pyrimidin-2-yl]phenyl}ethyl)pyridazin-4(1H)-one]
> 7.00 | CCn1cc(-n2ccc(=O)c(C(C)c3cccc(-c4ncc(OC5CNC5)cn4)c3)n2)cn1 (single isomer, unassigned) [Example 340, 3-((1R or S)-1-{3-[5-(azetidin-3-yloxy)pyrimidin-2-yl]phenyl}ethyl)-1-(1-ethyl-1H-pyrazol-4-yl)pyridazin-4(1H)-one]
> 7.00 | Cn1cc(-n2ccc(=O)c(Cc3cccc(-c4ncc(OCC5COCCO5)cn4)c3)n2)cn1 (single isomer, unassigned) [Example 347, 3-(3-{5-[(2R or-S)-1,4-dioxan-2-ylmethoxy]pyrimidin-2-yl}benzyl)-1-(1-methyl-1H-pyrazol-4-yl)pyridazin-4(1H)-one]
> 7.00 | Cn1cc(-n2ccc(=O)c(Cc3cccc(-c4ncc(OCC5COCCO5)cn4)c3)n2)cn1 (single isomer, unassigned) [Example 348, 3-(3-{5-[(2S or R)-1,4-dioxan-2-ylmethoxy]pyrimidin-2-yl}benzyl)-1-(1-methyl-1H-pyrazol-4-yl)pyridazin-4(1H)-one]
